Measured values as given in publication PMC7490411 (Signal Transduction and Targeted Therapy, 2020).

Legend:
[1] = target: T1, BLK (Homo sapiens, UniProt P51451); assay: ADP-Glo biochemical kinase assay
T1 construct: purchased Invitrogen (Carlsbad, CA, USA)
Excerpt: (§1) The biochemical tests of BMX, BLK, JAK3, TXK, HER2, HER4, ITK, EGFR, and BTK were provided by Invitrogen (Carlsbad, CA, USA).

[2] = target: T2, BMX (Homo sapiens, UniProt P51813); assay: ADP-Glo biochemical kinase assay
T2 construct: purchased Invitrogen (Carlsbad, CA, USA)
T2 sequence (P51813 1-675): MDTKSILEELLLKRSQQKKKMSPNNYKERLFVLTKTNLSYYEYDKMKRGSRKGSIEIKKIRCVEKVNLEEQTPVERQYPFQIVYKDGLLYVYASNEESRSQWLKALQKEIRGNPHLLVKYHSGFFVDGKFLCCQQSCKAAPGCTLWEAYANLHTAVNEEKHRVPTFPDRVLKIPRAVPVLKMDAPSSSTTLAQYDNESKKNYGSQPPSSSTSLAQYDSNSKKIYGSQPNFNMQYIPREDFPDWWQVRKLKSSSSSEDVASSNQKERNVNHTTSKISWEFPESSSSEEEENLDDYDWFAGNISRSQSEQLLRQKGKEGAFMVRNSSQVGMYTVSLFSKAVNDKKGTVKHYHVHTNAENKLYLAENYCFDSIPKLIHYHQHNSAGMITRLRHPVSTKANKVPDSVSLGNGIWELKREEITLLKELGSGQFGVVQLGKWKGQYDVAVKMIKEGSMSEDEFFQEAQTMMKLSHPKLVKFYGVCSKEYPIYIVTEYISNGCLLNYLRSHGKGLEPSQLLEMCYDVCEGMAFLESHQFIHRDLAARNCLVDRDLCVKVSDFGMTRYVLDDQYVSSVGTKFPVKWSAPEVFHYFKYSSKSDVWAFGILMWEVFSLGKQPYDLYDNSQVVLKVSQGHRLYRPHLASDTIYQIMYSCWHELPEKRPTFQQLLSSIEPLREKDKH
Excerpt: as §1

[3] = target: T3, EGFR (Homo sapiens, UniProt P00533); assay: ADP-Glo biochemical kinase assay
T3 construct: purchased Invitrogen (Carlsbad, CA, USA)
T3 sequence (P00533 25-1210): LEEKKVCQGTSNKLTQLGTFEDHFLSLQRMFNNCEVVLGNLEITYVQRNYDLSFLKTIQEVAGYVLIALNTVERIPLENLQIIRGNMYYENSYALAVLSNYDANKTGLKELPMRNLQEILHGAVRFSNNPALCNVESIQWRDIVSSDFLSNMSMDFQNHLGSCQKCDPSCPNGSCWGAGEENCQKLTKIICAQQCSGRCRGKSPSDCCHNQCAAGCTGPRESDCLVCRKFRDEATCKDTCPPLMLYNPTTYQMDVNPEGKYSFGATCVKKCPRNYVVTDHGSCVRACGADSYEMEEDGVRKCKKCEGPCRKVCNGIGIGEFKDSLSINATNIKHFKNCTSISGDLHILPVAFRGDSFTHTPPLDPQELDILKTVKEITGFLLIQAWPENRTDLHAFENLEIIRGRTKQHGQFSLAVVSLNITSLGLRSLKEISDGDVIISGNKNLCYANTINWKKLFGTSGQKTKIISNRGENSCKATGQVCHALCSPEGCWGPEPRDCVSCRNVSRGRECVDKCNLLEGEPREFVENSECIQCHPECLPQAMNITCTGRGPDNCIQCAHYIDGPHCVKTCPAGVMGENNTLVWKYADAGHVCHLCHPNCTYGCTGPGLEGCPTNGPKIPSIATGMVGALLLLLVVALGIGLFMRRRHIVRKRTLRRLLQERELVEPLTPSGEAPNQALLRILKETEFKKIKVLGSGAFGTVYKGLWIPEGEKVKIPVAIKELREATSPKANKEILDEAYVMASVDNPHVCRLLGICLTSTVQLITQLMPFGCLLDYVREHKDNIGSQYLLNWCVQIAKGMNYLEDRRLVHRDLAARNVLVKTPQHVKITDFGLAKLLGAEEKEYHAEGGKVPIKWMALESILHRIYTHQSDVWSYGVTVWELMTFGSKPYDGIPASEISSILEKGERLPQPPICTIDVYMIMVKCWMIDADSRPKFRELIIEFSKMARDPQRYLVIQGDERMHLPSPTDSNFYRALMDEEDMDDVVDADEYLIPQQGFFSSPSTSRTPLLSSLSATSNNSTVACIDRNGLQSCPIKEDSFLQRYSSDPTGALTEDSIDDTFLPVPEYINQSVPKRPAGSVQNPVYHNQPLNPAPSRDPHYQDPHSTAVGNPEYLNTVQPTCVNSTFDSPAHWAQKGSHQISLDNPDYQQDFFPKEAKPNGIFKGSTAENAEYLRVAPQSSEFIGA
Excerpt: as §1

[4] = target: T4, HER2 (Homo sapiens, UniProt P04626); assay: ADP-Glo biochemical kinase assay
T4 construct: purchased Invitrogen (Carlsbad, CA, USA)
T4 sequence (P04626 23-1255): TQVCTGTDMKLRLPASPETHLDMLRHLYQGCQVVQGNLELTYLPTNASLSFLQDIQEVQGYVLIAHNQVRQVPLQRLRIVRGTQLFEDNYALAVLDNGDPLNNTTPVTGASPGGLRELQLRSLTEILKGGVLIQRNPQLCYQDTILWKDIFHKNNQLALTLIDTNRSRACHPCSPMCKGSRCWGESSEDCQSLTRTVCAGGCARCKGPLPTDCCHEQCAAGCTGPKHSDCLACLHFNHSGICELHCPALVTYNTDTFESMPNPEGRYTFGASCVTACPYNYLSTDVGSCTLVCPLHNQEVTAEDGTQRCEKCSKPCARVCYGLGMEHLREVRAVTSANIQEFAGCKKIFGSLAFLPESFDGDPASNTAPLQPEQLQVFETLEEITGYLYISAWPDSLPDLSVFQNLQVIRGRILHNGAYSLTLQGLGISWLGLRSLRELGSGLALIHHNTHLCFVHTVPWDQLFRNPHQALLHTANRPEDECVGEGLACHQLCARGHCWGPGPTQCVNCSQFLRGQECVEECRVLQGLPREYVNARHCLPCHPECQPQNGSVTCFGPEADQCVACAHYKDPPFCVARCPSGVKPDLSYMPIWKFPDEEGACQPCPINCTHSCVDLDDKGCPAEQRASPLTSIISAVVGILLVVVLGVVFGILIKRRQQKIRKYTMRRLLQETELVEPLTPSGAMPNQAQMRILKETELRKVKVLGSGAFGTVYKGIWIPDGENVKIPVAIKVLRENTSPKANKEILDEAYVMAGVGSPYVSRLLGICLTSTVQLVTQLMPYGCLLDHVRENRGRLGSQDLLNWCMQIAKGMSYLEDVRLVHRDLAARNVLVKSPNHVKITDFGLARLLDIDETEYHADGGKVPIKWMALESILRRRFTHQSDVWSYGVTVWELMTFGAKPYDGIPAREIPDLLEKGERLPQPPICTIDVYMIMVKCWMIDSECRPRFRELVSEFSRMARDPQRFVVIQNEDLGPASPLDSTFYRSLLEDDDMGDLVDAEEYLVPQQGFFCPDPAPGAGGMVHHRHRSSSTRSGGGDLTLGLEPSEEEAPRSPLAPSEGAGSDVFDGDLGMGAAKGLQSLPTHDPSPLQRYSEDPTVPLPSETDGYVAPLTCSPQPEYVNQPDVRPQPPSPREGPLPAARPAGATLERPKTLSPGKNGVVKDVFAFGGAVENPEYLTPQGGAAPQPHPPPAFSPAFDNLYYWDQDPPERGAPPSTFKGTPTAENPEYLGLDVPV
Excerpt: as §1

[5] = target: T5, HER4 (Homo sapiens, UniProt Q15303); assay: ADP-Glo biochemical kinase assay
T5 construct: purchased Invitrogen (Carlsbad, CA, USA)
T5 sequence (Q15303 26-1308): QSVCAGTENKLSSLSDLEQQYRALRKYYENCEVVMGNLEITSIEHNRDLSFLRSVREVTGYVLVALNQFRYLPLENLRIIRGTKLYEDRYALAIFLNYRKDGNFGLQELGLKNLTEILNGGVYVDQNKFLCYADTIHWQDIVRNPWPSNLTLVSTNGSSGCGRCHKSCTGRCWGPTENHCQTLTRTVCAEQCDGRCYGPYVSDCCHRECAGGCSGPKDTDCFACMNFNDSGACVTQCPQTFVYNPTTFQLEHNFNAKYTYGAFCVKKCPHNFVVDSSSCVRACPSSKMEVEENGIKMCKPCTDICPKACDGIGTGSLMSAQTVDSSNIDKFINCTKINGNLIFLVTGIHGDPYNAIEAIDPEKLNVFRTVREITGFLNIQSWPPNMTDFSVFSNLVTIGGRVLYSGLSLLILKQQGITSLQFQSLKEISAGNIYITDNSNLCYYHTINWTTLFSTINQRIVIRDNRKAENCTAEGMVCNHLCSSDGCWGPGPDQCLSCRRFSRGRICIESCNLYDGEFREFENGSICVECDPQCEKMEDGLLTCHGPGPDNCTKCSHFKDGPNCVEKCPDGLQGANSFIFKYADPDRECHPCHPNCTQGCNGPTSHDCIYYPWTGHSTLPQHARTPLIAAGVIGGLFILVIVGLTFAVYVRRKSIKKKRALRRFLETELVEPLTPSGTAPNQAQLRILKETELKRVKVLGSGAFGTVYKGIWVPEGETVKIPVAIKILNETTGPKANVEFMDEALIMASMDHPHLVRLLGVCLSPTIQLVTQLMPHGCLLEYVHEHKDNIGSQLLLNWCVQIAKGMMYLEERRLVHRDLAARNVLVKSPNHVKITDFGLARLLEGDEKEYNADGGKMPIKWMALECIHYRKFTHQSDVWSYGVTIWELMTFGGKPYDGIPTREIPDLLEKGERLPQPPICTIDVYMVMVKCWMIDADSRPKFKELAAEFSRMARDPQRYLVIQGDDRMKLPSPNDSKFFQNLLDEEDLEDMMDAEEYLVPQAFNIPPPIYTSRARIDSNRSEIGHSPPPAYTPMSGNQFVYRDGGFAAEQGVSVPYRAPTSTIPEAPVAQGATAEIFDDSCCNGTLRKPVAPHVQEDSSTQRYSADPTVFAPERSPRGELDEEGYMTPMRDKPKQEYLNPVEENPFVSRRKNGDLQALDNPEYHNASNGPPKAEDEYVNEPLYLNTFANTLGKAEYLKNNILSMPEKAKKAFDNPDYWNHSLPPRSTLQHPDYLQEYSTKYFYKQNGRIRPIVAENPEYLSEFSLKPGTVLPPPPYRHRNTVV
Excerpt: as §1

[6] = target: T6, ITK (Homo sapiens, UniProt Q08881); assay: ADP-Glo biochemical kinase assay
T6 construct: purchased Invitrogen (Carlsbad, CA, USA)
T6 sequence (Q08881 1-620): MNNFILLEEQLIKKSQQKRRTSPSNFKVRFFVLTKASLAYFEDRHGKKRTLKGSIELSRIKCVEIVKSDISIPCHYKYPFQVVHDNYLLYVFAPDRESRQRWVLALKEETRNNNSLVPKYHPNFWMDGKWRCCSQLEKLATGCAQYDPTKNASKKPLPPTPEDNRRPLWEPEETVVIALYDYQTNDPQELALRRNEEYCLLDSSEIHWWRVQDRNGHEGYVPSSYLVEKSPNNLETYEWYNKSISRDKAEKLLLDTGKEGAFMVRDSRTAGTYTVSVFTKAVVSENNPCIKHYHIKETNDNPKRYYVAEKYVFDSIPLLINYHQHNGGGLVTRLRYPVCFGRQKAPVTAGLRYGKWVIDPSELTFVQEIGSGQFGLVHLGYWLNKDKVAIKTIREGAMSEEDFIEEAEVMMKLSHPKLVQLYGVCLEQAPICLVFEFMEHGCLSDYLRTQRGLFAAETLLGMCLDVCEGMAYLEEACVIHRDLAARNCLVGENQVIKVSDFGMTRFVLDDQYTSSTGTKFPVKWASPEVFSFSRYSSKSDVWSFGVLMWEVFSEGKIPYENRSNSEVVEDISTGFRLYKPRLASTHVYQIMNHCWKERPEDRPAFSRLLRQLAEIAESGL
Excerpt: as §1

[7] = target: T7, JAK3 (Homo sapiens, UniProt P52333); assay: ADP-Glo biochemical kinase assay; settings: read-out: IC50 against JAK3
T7 construct: purchased Invitrogen (Carlsbad, CA, USA)
Excerpt: as §1

[8] = target: T8, TXK (Homo sapiens, UniProt P42681); assay: ADP-Glo biochemical kinase assay; settings: read-out: IC50 against TXK
T8 construct: purchased Invitrogen (Carlsbad, CA, USA)
T8 sequence (P42681 whole entry): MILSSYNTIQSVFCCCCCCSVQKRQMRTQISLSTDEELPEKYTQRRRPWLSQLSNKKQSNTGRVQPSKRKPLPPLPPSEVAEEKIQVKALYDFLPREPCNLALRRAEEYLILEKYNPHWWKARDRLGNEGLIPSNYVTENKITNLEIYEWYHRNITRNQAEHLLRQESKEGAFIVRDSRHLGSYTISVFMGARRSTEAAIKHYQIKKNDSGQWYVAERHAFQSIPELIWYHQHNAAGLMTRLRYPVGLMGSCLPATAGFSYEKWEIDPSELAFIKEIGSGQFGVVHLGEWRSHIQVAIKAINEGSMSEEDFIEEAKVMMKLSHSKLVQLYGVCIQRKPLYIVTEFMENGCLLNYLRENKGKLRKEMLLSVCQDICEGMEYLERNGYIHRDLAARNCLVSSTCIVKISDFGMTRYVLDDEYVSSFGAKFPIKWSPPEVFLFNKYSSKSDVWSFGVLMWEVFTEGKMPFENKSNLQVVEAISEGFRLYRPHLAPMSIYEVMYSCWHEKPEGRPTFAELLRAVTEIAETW
Excerpt: as §1

[9] = system: CDC2L1; assay: KINOMEscan; type: binding; settings: 1000 nM
[10] = system: EGFR(L858R); assay: KINOMEscan; type: binding; settings: 1000 nM
[11] = system: ERK1; assay: KINOMEscan; type: binding; settings: 1000 nM
[12] = system: FLT3(ITD,F691L); assay: KINOMEscan; type: binding; settings: 1000 nM
[13] = system: FLT3(K663Q); assay: KINOMEscan; type: binding; settings: 1000 nM
[14] = system: FLT3-autoinhibited; assay: KINOMEscan; type: binding; settings: 1000 nM
[15] = system: GRK4; assay: KINOMEscan; type: binding; settings: 1000 nM
[16] = system: INSRR; assay: KINOMEscan; type: binding; settings: 1000 nM
[17] = system: MAK; assay: KINOMEscan; type: binding; settings: 1000 nM
[18] = system: MAP3K15; assay: KINOMEscan; type: binding; settings: 1000 nM
[19] = system: MAP4K4; assay: KINOMEscan; type: binding; settings: 1000 nM
[20] = system: MEK1; assay: KINOMEscan; type: binding; settings: 1000 nM
[21] = system: NEK5; assay: KINOMEscan; type: binding; settings: 1000 nM
[22] = system: PCTK1; assay: KINOMEscan; type: binding; settings: 1000 nM
[23] = system: PDGFRA; assay: KINOMEscan; type: binding; settings: 1000 nM
[24] = system: PDGFRB; assay: KINOMEscan; type: binding; settings: 1000 nM
[25] = system: RIPK1; assay: KINOMEscan; type: binding; settings: 1000 nM
[26] = system: TAOK3; assay: KINOMEscan; type: binding; settings: 1000 nM
[27] = system: TTK; assay: KINOMEscan; type: binding; settings: 1000 nM
[28] = system: WEE1; assay: KINOMEscan; type: binding; settings: 1000 nM
[29] = system: ZAP70; assay: KINOMEscan; type: binding; settings: 1000 nM

T1 sequence (P51451 whole entry): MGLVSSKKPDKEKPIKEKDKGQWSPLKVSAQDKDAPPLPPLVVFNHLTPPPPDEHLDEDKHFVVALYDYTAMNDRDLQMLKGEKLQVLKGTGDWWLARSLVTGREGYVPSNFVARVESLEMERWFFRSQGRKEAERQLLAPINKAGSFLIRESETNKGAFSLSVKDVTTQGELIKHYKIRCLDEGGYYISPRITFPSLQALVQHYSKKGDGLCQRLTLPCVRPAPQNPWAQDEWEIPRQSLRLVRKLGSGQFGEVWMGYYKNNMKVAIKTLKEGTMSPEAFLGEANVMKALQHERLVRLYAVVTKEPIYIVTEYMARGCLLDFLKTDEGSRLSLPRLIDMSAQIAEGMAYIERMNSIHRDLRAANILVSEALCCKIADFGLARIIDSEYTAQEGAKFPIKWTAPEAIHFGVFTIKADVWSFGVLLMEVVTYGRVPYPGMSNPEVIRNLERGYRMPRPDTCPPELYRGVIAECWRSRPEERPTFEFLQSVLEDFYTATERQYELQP

For `C=CC(=O)Nc1cc(Nc2cc(-c3cccc(NC(=O)c4cc5c(s4)CCCC5)c3C)cn(C)c2=O)ccc1N1CCN(CC)CC1` [CHMFL-BTK-85], the IC50 ([1]; read-out: IC50 against BLK) was > 10 µM, the “selectivity over BLK” value ([1]; vs BTK) was “more than 1000 fold” and the IC50 ([2]; read-out: IC50 against BMX) was 0.12 ± 0.0037 µM. For the same compound, the “selectivity over BMX” value ([2]; vs BTK) was 10 fold, the IC50 ([3]; read-out: IC50 against EGFR) was > 10 µM and the “selectivity over EGFR” value ([3]; vs BTK) was “more than 1000 fold”. For the same compound, the IC50 ([4]; read-out: IC50 against HER2) was > 10 µM, the “selectivity over HER2” value ([4]; vs BTK) was “more than 1000 fold” and the IC50 ([5]; read-out: IC50 against HER4) was > 10 µM. For the same compound, the “selectivity over HER4” value ([5]; vs BTK) was “more than 1000 fold”, the IC50 ([6]; read-out: IC50 against ITK) was > 10 µM and the “selectivity over ITK” value ([6]; vs BTK) was “more than 1000 fold”. The IC50 [7] was 2.72 ± 0.045 µM, the IC50 [8] was 3.313 ± 0.017 µM and the “Percent Control” value [9] was 100%. The “Percent Control” value [10] was 59%, the “Percent Control” value [11] was 93% and the “Percent Control” value [12] was 77%. The “Percent Control” value [13] was 100%, the “Percent Control” value [14] was 100% and the “Percent Control” value [15] was 88%. For the same compound, the “Percent Control” value [16] was 90%, the “Percent Control” value [17] was 89% and the “Percent Control” value [18] was 96%. The “Percent Control” value [19] was 90%, the “Percent Control” value [20] was 100% and the “Percent Control” value [21] was 100%. For the same compound, the “Percent Control” value [22] was 100%, the “Percent Control” value [23] was 100% and the “Percent Control” value [24] was 68%. For the same compound, the “Percent Control” value [25] was 97%, the “Percent Control” value [26] was 100% and the “Percent Control” value [27] was 54%. For the same compound, the “Percent Control” value [28] was 100% and the “Percent Control” value [29] was 100%.
